Values joined by “and” are separate entries in the source; they are usually repeats but may differ in a detail not shown here. Equal entries are not always repeated.

The species named for one assay is Homo sapiens. Nature of the assay: Ratio of relative binding affinity for full-length human estrogen receptor beta to ratio of relative binding affinity for full length human estrogen receptor alpha.
Assay [1] addresses T1, Estrogen receptor beta (Homo sapiens, UniProt Q92731). Put plainly: Displacement of [3H]estradiol from full-length human estrogen receptor beta by radiometric assay relative to estradiol. For orientation: Loss of bound radioactivity is the signal in a displacement assay; it reports binding, not function.
In assay [2] the target is T1, Estrogen receptor beta.
The next assay addresses T2, Estrogen receptor (Homo sapiens, UniProt P03372).
T2 sequence (P03372 whole entry): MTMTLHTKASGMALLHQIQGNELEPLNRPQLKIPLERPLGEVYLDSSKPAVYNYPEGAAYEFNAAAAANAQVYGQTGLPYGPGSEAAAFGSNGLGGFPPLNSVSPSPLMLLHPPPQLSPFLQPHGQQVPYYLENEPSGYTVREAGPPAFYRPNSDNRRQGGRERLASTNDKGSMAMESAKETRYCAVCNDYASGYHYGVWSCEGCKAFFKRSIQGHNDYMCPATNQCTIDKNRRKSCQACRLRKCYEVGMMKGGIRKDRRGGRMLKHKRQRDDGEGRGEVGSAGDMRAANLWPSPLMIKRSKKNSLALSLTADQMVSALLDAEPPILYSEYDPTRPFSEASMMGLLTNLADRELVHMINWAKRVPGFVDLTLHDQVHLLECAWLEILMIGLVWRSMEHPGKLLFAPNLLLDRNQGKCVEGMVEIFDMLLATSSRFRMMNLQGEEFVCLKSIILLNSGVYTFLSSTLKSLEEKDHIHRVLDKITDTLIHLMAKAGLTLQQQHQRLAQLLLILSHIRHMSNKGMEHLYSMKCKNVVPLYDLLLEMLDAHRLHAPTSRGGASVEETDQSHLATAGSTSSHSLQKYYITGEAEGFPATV

The target in assay [3] is T1, Estrogen receptor beta. Nature of the assay: Agonist activity at full-length human estrogen receptor beta expressed in human HEC1 cells assessed as transcriptional activation after 24 hrs by luciferase reporter gene assay relative to estradiol. The settings on record: HEC-1. It is filed as functional, cell-based. On the technique in general: A reporter such as luciferase makes a cellular process visible.

T1 sequence (Q92731 whole entry): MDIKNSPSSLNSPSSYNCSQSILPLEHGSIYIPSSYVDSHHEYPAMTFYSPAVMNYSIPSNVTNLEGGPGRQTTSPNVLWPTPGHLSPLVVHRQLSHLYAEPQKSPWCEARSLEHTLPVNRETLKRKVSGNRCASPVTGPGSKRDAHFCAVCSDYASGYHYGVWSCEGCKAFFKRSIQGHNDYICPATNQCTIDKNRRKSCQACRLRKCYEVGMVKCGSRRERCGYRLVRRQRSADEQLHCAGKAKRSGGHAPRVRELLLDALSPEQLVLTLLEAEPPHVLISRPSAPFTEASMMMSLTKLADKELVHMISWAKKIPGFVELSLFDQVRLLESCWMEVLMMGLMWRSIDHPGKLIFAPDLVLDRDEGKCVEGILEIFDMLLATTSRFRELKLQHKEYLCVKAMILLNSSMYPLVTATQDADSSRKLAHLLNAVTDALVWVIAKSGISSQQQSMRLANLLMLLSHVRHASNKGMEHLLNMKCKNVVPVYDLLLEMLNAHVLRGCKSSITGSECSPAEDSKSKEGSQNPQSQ

Consider `C/C(=N\O)c1ccc(-c2ccc(O)cc2)c(Cl)c1O`, for which the Ratio in the assay filed under Homo sapiens was 10. This compound also came in with an Activity at Estrogen receptor beta [1] of 0.123%.
On the same counts, the results for `O/N=C/c1ccc(-c2ccc(O)cc2)cc1O` are 79 and 0.553%.
`COc1ccc(-c2ccc(O)c(/C=N/O)c2)cc1`: the Ratio in the assay listed under Homo sapiens worked out at 3.7. For the same compound, the Activity on Estrogen receptor beta [1] came to 0.011%.
On the same counts, the results for `COc1ccc(-c2ccc(/C=N/O)c(O)c2Cl)cc1F` are 1.8 and 0.011%.
In the same order, the values of `COc1ccc(-c2ccc(O)c(/C=N/O)c2)cc1F` are 1.9 and 0.013%.
In the case of `C/C(=N\O)c1ccc(-c2ccc(O)c(F)c2)c(Cl)c1O`, in the assay filed under Homo sapiens, the Ratio turned out to be 13. At Estrogen receptor beta [1], this compound registered an Activity of 0.077%.
As for `O/N=C/c1cc(-c2ccc(O)c(F)c2)ccc1O`, the Ratio in the assay listed under Homo sapiens was 46. Also, the Activity on Estrogen receptor beta [1] worked out at 0.97%.
For `COc1ccc(-c2ccc(/C(C)=N/O)c(O)c2Cl)cc1F`, the Activity at Estrogen receptor beta [1] came to 0.002%.
Same read-out and setting: under `COc1ccc(-c2ccc(/C(C)=N/O)c(O)c2Cl)cc1` stands 0.002%.
One may read the EC50 as the concentration needed to bring the measured effect to its halfway point. The low end stands for greater potency, the high end for weaker potency. A word on the Ki: it is the equilibrium dissociation constant of an inhibitor or competing ligand from its target. A high value points to a looser hold on the target. Turning to `O/N=C/c1ccc(-c2ccc(O)c(F)c2)c(Cl)c1O`, in the assay filed under Homo sapiens, the Ratio worked out at 62. Besides, the EC50 on Estrogen receptor beta [2] amounted to 4.8 nM; on Estrogen receptor, 19 nM. The Activity was 7.01% at Estrogen receptor beta [1] and above 85% on Estrogen receptor beta [3]. This compound gave a Ki on Estrogen receptor beta [1] of 7.1 nM.
`O/N=C/c1cc(-c2ccc(O)cc2)ccc1O`: the Ratio in the assay listed under Homo sapiens was 41. In addition, the EC50 is 10 nM on Estrogen receptor beta [2]; 17 nM and 10 nM at Estrogen receptor. This compound also registered an Activity at Estrogen receptor beta [1] of 2.64%.

These data come from ChEMBL document CHEMBL1143352, “Structural evolutions of salicylaldoximes as selective agonists for estrogen receptor beta” (J Med Chem, 2009).
